In PMC6070996 (Marine Drugs, 2018):

What was measured:
mice = details: cited from earlier work
PP1 = details: cited from earlier work
Chymotrypsin = details: cited from earlier work
papain = tested on: papain; parameters: method as in doi:10.1021/np960649a; details: cited from earlier work
plasmin = details: cited from earlier work
Thrombin [1] = target: T1, Thrombin (Bos taurus, UniProt P00735); parameters: method as in doi:10.1021/np960649a; details: cited from earlier work
T1 construct: purchased Sigma-Aldrich T4648

trypsin = details: cited from earlier work
Elastase = target: Elastase; parameters: method as in doi:10.1021/np960649a; details: cited from earlier work
[2] = tested on: neuro-2A neuroblastoma cells; parameters: method as in PMID 18163584; details: cited from earlier work
[3] = tested on: NCI H460 lung cancer cells; parameters: method as in PMID 18163584; details: cited from earlier work
factor XIa = tested on: factor XIa; parameters: method as in PMID 20405925; details: cited from earlier work
[4] = target: T2, protein phosphatase 1 (PP1) (Oryctolagus cuniculus, UniProt P62139); experiment: protein phosphatase 1 inhibition assay; format: biochemical; parameters: key: - not active; */** small/medium activity; */** small/medium activity; details: highest concentration 45.4 μg/mL
T2 construct: purchased England Biolabs, Hitchin, UK (New England Biolabs) 754S

small crustaceans = tested on: small crustaceans; parameters: method as in doi:10.2216/i0031-8884-35-6S-111.1, PMID 20405925, PMID 12662108; details: cited from earlier work
human kallikrein = tested on: human kallikrein; parameters: method as in PMID 20405925; details: cited from earlier work
Thrombin [5] = target: T1, Thrombin; experiment: thrombin inhibition assay; format: biochemical; parameters: key: - not active; */** small/medium activity; */** small/medium activity; details: highest concentration 45.4 μg/mL
[6] = target: T3, elastase from porcine pancreas (Sus scrofa, UniProt P00772); experiment: elastase inhibition assay; format: biochemical; parameters: key: - not active; */** small/medium activity; */** small/medium activity; details: highest concentration 45.4 μg/mL
T3 construct: purchased Sigma-Aldrich E0258; host or cells: porcine pancreas

[7] = tested on: human hepatoma cell line Huh7; parameters: method as in PMID 27428998; details: cited from earlier work
[8] = tested on: zebrafish eleuthero-embryos; parameters: method as in PMID 24561424; details: genes of DNA damage recognition and repair, circadian rhythm; cited from earlier work
Daphnia magna = details: compared with microcystin-LR; cited from earlier work
isolated rat hepatocytes = tested on: isolated rat hepatocytes; parameters: method as in doi:10.2216/i0031-8884-35-6S-111.1; details: cited from earlier work

T3 sequence (P00772 27-266): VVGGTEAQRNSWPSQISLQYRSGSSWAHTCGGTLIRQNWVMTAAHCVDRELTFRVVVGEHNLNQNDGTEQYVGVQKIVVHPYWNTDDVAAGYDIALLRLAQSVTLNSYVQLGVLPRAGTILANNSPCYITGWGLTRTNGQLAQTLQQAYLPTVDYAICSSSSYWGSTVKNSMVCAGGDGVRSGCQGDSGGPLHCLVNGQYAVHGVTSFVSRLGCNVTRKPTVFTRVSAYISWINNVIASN
T2 sequence (P62139 whole entry): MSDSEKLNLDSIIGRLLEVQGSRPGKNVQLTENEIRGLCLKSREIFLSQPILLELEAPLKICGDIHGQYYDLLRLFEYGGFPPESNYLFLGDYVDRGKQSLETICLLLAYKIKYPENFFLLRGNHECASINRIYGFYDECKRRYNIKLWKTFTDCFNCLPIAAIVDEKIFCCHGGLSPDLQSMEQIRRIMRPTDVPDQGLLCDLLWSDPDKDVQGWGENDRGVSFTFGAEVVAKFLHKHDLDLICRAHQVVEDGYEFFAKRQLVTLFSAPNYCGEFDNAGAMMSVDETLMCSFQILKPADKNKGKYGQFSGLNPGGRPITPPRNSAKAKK

## CC[C@H](C)[C@H](NC(=O)[C@H](O)Cc1ccc(O)cc1)C(=O)N[C@@H](CCO)C(=O)N[C@@H]1C(=O)N[C@@H](CCO)C(=O)N[C@H]2CC[C@@H](O)N(C2=O)[C@@H](Cc2ccccc2)C(=O)N(C)[C@@H](Cc2ccc(O)cc2)C(=O)N[C@@H](C(C)C)C(=O)O[C@@H]1C [Nostocyclin, [Thr+Hse+Ahp+Phe+MeTyr+Val]Hse+Ile+Hpla]
mice
  toxicity in mouse bioassay: not toxic
PP1; protein phosphatases
  activity against protein phosphatases: weak activity
PP1; read-out: Enzyme Inhibition PP1 IC50
  IC50: 64 µM

## CC[C@H](C)[C@@H]1NC(=O)[C@H](Cc2ccc(O)cc2)N(C)C(=O)[C@H]([C@@H](C)CC)N2C(=O)C(CCC2O)NC(=O)[C@H](CC(C)C)NC(=O)[C@@H]2C(OC1=O)C(C)CN2C(=O)[C@H](CCC(N)=O)NC(C)=O (stereo partly shown) [Nostopeptin B, [Hmp+Leu+Ahp+Ile+MeTyr+Ile]Gln+Ac]
Chymotrypsin
  Enzyme Inhibition Chymotrypsin IC50: 1.6 µg/mL
papain
  activity against papain: inactive
plasmin
  activity against plasmin: inactive
Thrombin [1]
  activity against thrombin: inactive
trypsin
  activity against trypsin: inactive
Elastase
  Enzyme Inhibition Elastase IC50: 11.0 µg/mL

## CCCC(=O)N[C@@H](CCC(N)=O)C(=O)N[C@@H]1C(=O)N[C@@H](CCCNC(N)=O)C(=O)N[C@H]2CC[C@@H](O)N(C2=O)[C@@H]([C@@H](C)CC)C(=O)N(C)[C@@H](Cc2ccc(OC)c(Br)c2)C(=O)N[C@@H](C(C)C)C(=O)O[C@@H]1C [Symplocamide A]
Chymotrypsin; read-out: chymotrypsin IC50
  IC50: 0.38 µM
[2]
  cytotoxic activity to neuro-2A neuroblastoma cells: cytotoxic activity
[3]
  cytotoxic activity to NCI H460 lung cancer cells: cytotoxic activity
trypsin
  IC50: 80.2 µM

## CCCC(=O)N[C@@H](CCC(N)=O)C(=O)N1CC(C)C2OC(=O)[C@H]([C@@H](C)CC)NC(=O)[C@H](Cc3ccc(O)cc3)N(C)C(=O)[C@H]([C@@H](C)CC)N3C(=O)C(CCC3O)NC(=O)[C@H](CC(C)C)NC(=O)[C@H]21 (stereo partly shown) [Nostopeptin A, [Hmp+Leu+Ahp+Ile+MeTyr+Ile]Gln+BA]
Chymotrypsin
  Enzyme Inhibition Chymotrypsin IC50: 1.4 µg/mL
papain
  activity against papain: inactive
plasmin
  activity against plasmin: inactive
Thrombin [1]
  activity against thrombin: inactive
trypsin
  activity against trypsin: inactive
Elastase
  Enzyme Inhibition Elastase IC50: 1.3 µg/mL

## CCCCCC(=O)N[C@@H](CC(=O)O)C(=O)N[C@@H]1C(=O)N[C@@H](CCCNC(=N)N)C(=O)N[C@H]2CC[C@@H](O)N(C2=O)[C@@H](Cc2ccccc2)C(=O)N(C)[C@@H](CCc2ccc(O)cc2)C(=O)N[C@@H](C(C)C)C(=O)O[C@@H]1C [CP 1020, [Thr+Arg+Ahp+Phe+MeHty+Val]Asp+HA]
Chymotrypsin
  activity against chymotrypsin: active
Factor XIa
  activity against factor XIa: active
[4]
  Enzyme Inhibition Protein Phosphatase 1 (activity class): -
Small crustaceans
  acute effects in small crustaceans: induced acute effects
plasmin
  activity against plasmin: active
Human kallikrein
  activity against human kallikrein: active
trypsin
  inhibition of trypsin: Picomolar inhibition
Thrombin [5]
  Enzyme Inhibition Thrombin (activity class): -
[6]
  Enzyme Inhibition Elastase (activity class): -

## CCCCCC(=O)N[C@@H](CCC(=O)O)C(=O)N[C@@H]1C(=O)N[C@@H](CCCNC(=N)N)C(=O)N[C@H]2CC[C@@H](O)N(C2=O)[C@@H](Cc2ccccc2)C(=O)N(C)[C@@H](Cc2ccc(O)cc2)C(=O)N[C@@H](C(C)C)C(=O)O[C@@H]1C [CP1020, cyanopeptolin 1020]
[7]
  anti-inflammatory effects in Huh7: induction of anti-inflammatory effects
[8]
  transcriptional alterations of genes in zebrafish eleuthero-embryos: led to transcriptional alterations of genes

## CC[C@H](C)[C@@H]1NC(=O)[C@H](Cc2ccccc2)N(C)C(=O)[C@H]([C@@H](C)CC)N2C(=O)[C@H](CC[C@H]2O)NC(=O)[C@H](CCCN=C(N)N)NC(=O)[C@@H](NC(=O)[C@@H](COS(=O)(=O)O)OS(=O)(=O)O)[C@@H](C)OC1=O [CP SS]
Daphnia magna
  toxicity against Daphnia magna: even higher than for microcystin-LR
Small crustaceans
  acute effects in small crustaceans: induced acute effects
plasmin
  inhibition of plasmin: inhibited plasmin
Isolated rat hepatocytes
  toxicity to isolated rat hepatocytes: not toxic
